Experimental data reported in article PMC9270327 (Communications Biology, 2022).
Read-outs that look alike come from different tables or passages of the source.

How the values were obtained:
[1] = test system: SARS-CoV-2 Wuhan-Hu-1, Caco-2 cells; type: cell-based
[2] = test system: SARS-CoV-2 Beta (B.1.351), Caco-2 cells; type: cell-based; conditions: for SARS-CoV-2 infection, Mean (0 nM = 100): Fig. 6d, VOC Beta
TMPRSS2 = TMPRSS2 (Homo sapiens, UniProt O15393); test: Plasma stability: residual TMPRSS2 inhibition after incubation in human plasma
TMPRSS2, sequence (O15393 whole entry): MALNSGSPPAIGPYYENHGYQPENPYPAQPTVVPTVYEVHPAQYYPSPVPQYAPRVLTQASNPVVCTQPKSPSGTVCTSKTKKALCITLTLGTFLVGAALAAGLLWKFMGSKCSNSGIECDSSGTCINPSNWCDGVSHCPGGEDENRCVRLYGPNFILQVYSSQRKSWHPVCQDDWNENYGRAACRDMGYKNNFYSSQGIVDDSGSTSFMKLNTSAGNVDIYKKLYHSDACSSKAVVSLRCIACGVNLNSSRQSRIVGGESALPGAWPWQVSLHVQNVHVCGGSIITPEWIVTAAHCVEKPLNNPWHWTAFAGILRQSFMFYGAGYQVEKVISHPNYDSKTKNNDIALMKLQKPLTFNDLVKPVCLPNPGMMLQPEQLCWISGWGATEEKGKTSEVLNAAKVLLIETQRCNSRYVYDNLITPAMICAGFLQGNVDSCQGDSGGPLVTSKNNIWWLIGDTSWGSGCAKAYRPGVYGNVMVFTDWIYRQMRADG
Method: The activity of the compounds against the recombinant human enzymes was determined in enzyme inhibition assays. […] The measurements were performed on a Tecan infinite® M1000 and the fluorescence intensity was measured by exciting the AMC fluorophore at 380 nm wavelength and recording emission at 460 nm wavelength. […] Fluorescence intensities and absorption were measured every 2 min for 2 h or as endpoint after 2 h. […] To determine the IC50 values, the concentration-response data were plotted with the program GraphPad prism version 8.4.2 (San Diego, California) and a nonlinear regression fit with the equation [Inhibitor] vs. normalized response was applied. The inhibitory constant Ki was calculated from the IC50 values using the Cheng–Prusoff equation (Ki = IC50/[S]/KM) for competitive reversible inhibitors[66].
The stability of the inhibitors was measured according to a modified procedure from ref. [67]. […] At indicated timepoints, 100 µL samples were taken and mixed with 200 µL of ethanol to precipitate proteins. […] The supernatant was aspirated and analyzed using analytical HPLC. The residual inhibitory constants Ki after incubation was assessed by mixing serial dilutions of the inhibitor with recombinant TMPRSS2 as described above.
Shown are the means ± SD of n=1 experiment performed in triplicates.

ace-Arg-Pro-Arg-kbt [Compound 2]
IC50 ([1]; read-out: IC50 SARS-CoV-2 Wuhan-Hu-1): 4.57 µM | IC50 ([1]; read-out: IC50 SARS-CoV-2 Wuhan-Hu-1 (text)): 4.6 µM | SARS-CoV-2 infection, Mean (0 nM = 100) ([2]; compound 32 nM): 90.9628 | SARS-CoV-2 infection, Mean (0 nM = 100) ([2]; compound 160 nM): 88.9778 | SARS-CoV-2 infection, Mean (0 nM = 100) ([2]; compound 800 nM): 79.0008 | SARS-CoV-2 infection, Mean (0 nM = 100) ([2]; compound 4000 nM): 83.4908 | SARS-CoV-2 infection, Mean (0 nM = 100) ([2]; compound 20000 nM): 3.338 | SARS-CoV-2 infection, Mean (0 nM = 100) ([2]; compound 100000 nM): -2.162 | IC50 ([2]; read-out: IC50 SARS-CoV-2 Beta): 6.88 µM | TMPRSS2 activity, Mean (0 nM = 100) (TMPRSS2; inhibitor 0.0167 nM, 0 min in plasma): 108.191 | TMPRSS2 activity, Mean (0 nM = 100) (TMPRSS2; inhibitor 0.0167 nM, 30 min in plasma): 105.387 | TMPRSS2 activity, Mean (0 nM = 100) (TMPRSS2; inhibitor 0.0167 nM, 60 min in plasma): 97.3483 | TMPRSS2 activity, Mean (0 nM = 100) (TMPRSS2; inhibitor 0.0167 nM, 120 min in plasma): 100.611 | TMPRSS2 activity, Mean (0 nM = 100) (TMPRSS2; inhibitor 0.0167 nM, 24 h in plasma): 95.898 | TMPRSS2 activity, Mean (0 nM = 100) (TMPRSS2; inhibitor 0.0167 nM, 10 d in plasma): 98.4437 | TMPRSS2 activity, Mean (0 nM = 100) (TMPRSS2; inhibitor 0.0167 nM, positive ctrl): 103.005 | TMPRSS2 activity, Mean (0 nM = 100) (TMPRSS2; inhibitor 0.167 nM, 0 min in plasma): 105.131 | TMPRSS2 activity, Mean (0 nM = 100) (TMPRSS2; inhibitor 0.167 nM, 30 min in plasma): 104.481 | TMPRSS2 activity, Mean (0 nM = 100) (TMPRSS2; inhibitor 0.167 nM, 60 min in plasma): 96.8072 | TMPRSS2 activity, Mean (0 nM = 100) (TMPRSS2; inhibitor 0.167 nM, 120 min in plasma): 98.0518 | TMPRSS2 activity, Mean (0 nM = 100) (TMPRSS2; inhibitor 0.167 nM, 24 h in plasma): 93.482 | TMPRSS2 activity, Mean (0 nM = 100) (TMPRSS2; inhibitor 0.167 nM, 10 d in plasma): 101.036 | TMPRSS2 activity, Mean (0 nM = 100) (TMPRSS2; inhibitor 0.167 nM, positive ctrl): 100.219 | TMPRSS2 activity, Mean (0 nM = 100) (TMPRSS2; inhibitor 1.665 nM, 0 min in plasma): 102.769 | TMPRSS2 activity, Mean (0 nM = 100) (TMPRSS2; inhibitor 1.665 nM, 30 min in plasma): 100.449 | TMPRSS2 activity, Mean (0 nM = 100) (TMPRSS2; inhibitor 1.665 nM, 60 min in plasma): 96.1849 | TMPRSS2 activity, Mean (0 nM = 100) (TMPRSS2; inhibitor 1.665 nM, 120 min in plasma): 100.213 | TMPRSS2 activity, Mean (0 nM = 100) (TMPRSS2; inhibitor 1.665 nM, 24 h in plasma): 98.9115 | TMPRSS2 activity, Mean (0 nM = 100) (TMPRSS2; inhibitor 1.665 nM, 10 d in plasma): 97.0442 | TMPRSS2 activity, Mean (0 nM = 100) (TMPRSS2; inhibitor 1.665 nM, positive ctrl): 88.8492 | TMPRSS2 activity, Mean (0 nM = 100) (TMPRSS2; inhibitor 16.65 nM, 0 min in plasma): 86.0968 | TMPRSS2 activity, Mean (0 nM = 100) (TMPRSS2; inhibitor 16.65 nM, 30 min in plasma): 100.379 | TMPRSS2 activity, Mean (0 nM = 100) (TMPRSS2; inhibitor 16.65 nM, 60 min in plasma): 78.8625 | TMPRSS2 activity, Mean (0 nM = 100) (TMPRSS2; inhibitor 16.65 nM, 120 min in plasma): 82.8569 | TMPRSS2 activity, Mean (0 nM = 100) (TMPRSS2; inhibitor 16.65 nM, 24 h in plasma): 83.5789 | TMPRSS2 activity, Mean (0 nM = 100) (TMPRSS2; inhibitor 16.65 nM, 10 d in plasma): 88.0057 | TMPRSS2 activity, Mean (0 nM = 100) (TMPRSS2; inhibitor 16.65 nM, positive ctrl): 53.0338 | TMPRSS2 activity, Mean (0 nM = 100) (TMPRSS2; inhibitor 166.5 nM, 0 min in plasma): 23.84 | TMPRSS2 activity, Mean (0 nM = 100) (TMPRSS2; inhibitor 166.5 nM, 30 min in plasma): 25.2709 | TMPRSS2 activity, Mean (0 nM = 100) (TMPRSS2; inhibitor 166.5 nM, 60 min in plasma): 26.798 | TMPRSS2 activity, Mean (0 nM = 100) (TMPRSS2; inhibitor 166.5 nM, 120 min in plasma): 22.618 | TMPRSS2 activity, Mean (0 nM = 100) (TMPRSS2; inhibitor 166.5 nM, 24 h in plasma): 21.6315 | TMPRSS2 activity, Mean (0 nM = 100) (TMPRSS2; inhibitor 166.5 nM, 10 d in plasma): 39.6688 | TMPRSS2 activity, Mean (0 nM = 100) (TMPRSS2; inhibitor 166.5 nM, positive ctrl): 13.9877 | TMPRSS2 activity, Mean (0 nM = 100) (TMPRSS2; inhibitor 1665 nM, 0 min in plasma): 0.5738 | TMPRSS2 activity, Mean (0 nM = 100) (TMPRSS2; inhibitor 1665 nM, 30 min in plasma): 7.5387 | TMPRSS2 activity, Mean (0 nM = 100) (TMPRSS2; inhibitor 1665 nM, 60 min in plasma): 0.2056 | TMPRSS2 activity, Mean (0 nM = 100) (TMPRSS2; inhibitor 1665 nM, 120 min in plasma): 7.6223 | TMPRSS2 activity, Mean (0 nM = 100) (TMPRSS2; inhibitor 1665 nM, 24 h in plasma): 2.774 | TMPRSS2 activity, Mean (0 nM = 100) (TMPRSS2; inhibitor 1665 nM, 10 d in plasma): 10.1282 | TMPRSS2 activity, Mean (0 nM = 100) (TMPRSS2; inhibitor 1665 nM, positive ctrl): 12.6313
